Experimental data from ChEMBL document CHEMBL2218064, “Structure-activity relationship data for chemical series of antagonists of the P2X7 receptor (Supplementary Bioactivity Data for publication CHEMBL1157114)”.

Biological target: T1, P2X purinoceptor 7 (Homo sapiens, UniProt Q99572)
T1 sequence (Q99572 whole entry): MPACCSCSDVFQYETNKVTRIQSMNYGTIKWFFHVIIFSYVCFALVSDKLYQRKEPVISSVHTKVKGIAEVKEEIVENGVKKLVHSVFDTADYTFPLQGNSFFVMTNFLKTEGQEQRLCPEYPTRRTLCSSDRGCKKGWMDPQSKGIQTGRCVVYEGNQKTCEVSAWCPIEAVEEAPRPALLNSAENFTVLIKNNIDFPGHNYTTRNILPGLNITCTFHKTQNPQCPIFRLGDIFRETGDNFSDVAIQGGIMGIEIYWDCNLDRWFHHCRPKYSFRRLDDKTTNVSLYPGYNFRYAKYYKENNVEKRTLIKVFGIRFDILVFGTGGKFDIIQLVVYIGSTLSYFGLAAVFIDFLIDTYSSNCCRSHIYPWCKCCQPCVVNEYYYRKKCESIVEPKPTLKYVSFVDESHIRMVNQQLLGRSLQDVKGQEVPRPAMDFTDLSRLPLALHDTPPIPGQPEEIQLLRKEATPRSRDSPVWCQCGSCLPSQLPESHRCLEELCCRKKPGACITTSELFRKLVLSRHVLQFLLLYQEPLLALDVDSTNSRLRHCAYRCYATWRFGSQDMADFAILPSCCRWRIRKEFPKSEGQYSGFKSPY
Assay: SUPPLEMENTARY: Inhibition of human P2X7 receptor assessed as inhibition of ethidium bromide accumulation. Same assay as CHEMBL1103860

Row | Compound | IC50
1 | CN1[C@H](C(=O)NCc2ccccc2Cl)CCS1(=O)=O | 794 nM
2 | CCN1C(=O)C(C)(C)C[C@H]1C(=O)NCc1ccc(F)cc1Cl | 50.1 nM
3 | O=C1C(=O)N(c2cccc3c2CCCC3)CCN1Cc1ccc(F)cc1Cl | 50.1 nM
4 | O=C1C(=O)N(c2cccc(N3CCOCC3)c2)CCN1Cc1ccc(F)cc1Cl | 251 nM
5 | O=C1C(=O)N(c2ccccc2N2CCOCC2)CCN1Cc1ccc(F)cc1Cl | 126 nM
6 | CN1C(=O)N(c2ncccn2)CC1C(=O)NCc1cccc(C(F)(F)F)c1Cl (stereo not drawn) | 3.16 nM
7 | O=C1C(=O)N(c2cccc3cccnc23)CCN1Cc1ccc(F)cc1Cl | 1000 nM
8 | Cc1ccccc1N1CCN(C(C)c2ccc(Cl)cc2Cl)C(=O)C1=O (stereo not drawn) | 31.6 nM
9 | CN1C(=O)N(C2CCNCC2)CC1C(=O)NCc1cccc(C(F)(F)F)c1Cl (stereo not drawn) | 31.6 nM
10 | Cn1ncc(I)c1CC(=O)NCc1ccc(Cl)cc1Cl | 39.8 nM
11 | O=C1C(=O)N(c2ccc3c(c2)OCCO3)CCN1Cc1ccc(F)cc1Cl | 200 nM
12 | Cc1ccccc1N1CCN(Cc2c(F)cccc2Cl)C(=O)C1=O | 1000 nM
13 | Cc1ccc(N2CCN(Cc3ccc(F)cc3Cl)C(=O)C2=O)c(C)c1 | 79.4 nM
14 | Cc1ccc(C)c(N2CCN(Cc3ccc(F)cc3Cl)C(=O)C2=O)c1 | 7.94 nM
15 | Cc1ccc(N2CCN(Cc3ccc(F)cc3Cl)C(=O)C2=O)cc1C | 501 nM
16 | Cc1cc(C)cc(N2CCN(Cc3ccc(F)cc3Cl)C(=O)C2=O)c1 | 1000 nM
17 | CN1C(=O)N(c2ccccn2)CC1C(=O)NCc1cccc(C(F)(F)F)c1Cl (stereo not drawn) | 7.94 nM
18 | CN1C(=O)N(c2cccnc2)CC1C(=O)NCc1cccc(C(F)(F)F)c1Cl (stereo not drawn) | 12.6 nM
19 | Cc1ccccc1N1CCN(Cc2c(C)cc(Cl)cc2Cl)C(=O)C1=O | 5.01 nM
20 | Cc1ccccc1CN1CCN(c2ccccc2C)C(=O)C1=O | 501 nM
21 | C[C@@H]1CC(=O)N(C)[C@@H]1C(=O)NCc1cccc(C(F)(F)F)c1Cl | 15.8 nM

Row | Compound | IC50
22 | CN1C(=O)CC[C@@H]1C(=O)NCc1ccc(Cl)cc1Cl | 50.1 nM
23 | CC(C)(C)CN1C(=O)CC[C@@H]1C(=O)NCc1cccc(C(F)(F)F)c1Cl | 158 nM
24 | CC(C)N1[C@H](C(=O)NCc2ccc(Cl)cc2Cl)CCCS1(=O)=O | 501 nM
25 | Cc1c(Cl)cccc1CNC(=O)[C@@H]1CCCS(=O)(=O)N1C(C)C | 631 nM
26 | CN1[C@H](C(=O)NCc2ccc(F)cc2Cl)CCS1(=O)=O | 126 nM
27 | O=C(NCc1cccc(C(F)(F)F)c1Cl)[C@H]1CCC(=O)N1Cc1ccccn1 | 63.1 nM
28 | Cc1cccc(Cl)c1CNC(=O)[C@@H]1CCS(=O)(=O)N1C | 398 nM
29 | CN1[C@H](C(=O)NCc2ccc(Cl)cc2Cl)CCS1(=O)=O | 31.6 nM
30 | CN1C[C@@H](C(=O)NCc2cccc(C(F)(F)F)c2F)N(C)C1=O | 7.94 nM
31 | CN1C[C@@H](C(=O)NCc2ccc(F)c(F)c2F)N(C)C1=O | 31.6 nM
32 | CN1C[C@@H](C(=O)NCc2ccc(F)cc2C(F)(F)F)N(C)C1=O | 50.1 nM
33 | CN1C[C@@H](C(=O)NCc2ccc(F)cc2Cl)N(C)C1=O | 10 nM
34 | CCN1[C@H](C(=O)NCc2ccccc2Cl)CCS1(=O)=O | 501 nM
35 | CC(C)N1[C@H](C(=O)NCc2ccc(F)cc2C(F)(F)F)CCS1(=O)=O | 631 nM
36 | CN1[C@H](C(=O)NCc2ccc(F)cc2C(F)(F)F)CCS1(=O)=O | 398 nM
37 | Cc1cnn(CC(F)(F)F)c1CC(=O)NCc1ccc(F)c(F)c1Cl | 50.1 nM
38 | CN1C(=O)CC[C@H]1C(=O)NCc1ccc(F)c(C(F)(F)F)c1Cl | 3.16 nM
39 | CCN1[C@H](C(=O)NCc2ccc(F)c(F)c2F)CCS1(=O)=O | 251 nM
40 | Cc1c(Cl)cccc1CNC(=O)[C@@H]1CCS(=O)(=O)N1C | 100 nM
41 | Cc1c(Cl)cccc1CNC(=O)[C@@H]1CCS(=O)(=O)N1C(C)C | 251 nM
42 | CCN1[C@H](C(=O)NCc2cccc(Cl)c2C)CCS1(=O)=O | 50.1 nM

Row | Compound | IC50
43 | CCN1[C@H](C(=O)NCc2ccc(F)cc2C(F)(F)F)CCS1(=O)=O | 126 nM
44 | CC(C)N1[C@H](C(=O)NCc2ccc(F)cc2Cl)CCS1(=O)=O | 200 nM
45 | CC(C)N1[C@H](C(=O)NCc2ccc(F)c(F)c2F)CCS1(=O)=O | 501 nM
46 | CCN1[C@H](C(=O)NCc2ccc(Cl)cc2Cl)CCS1(=O)=O | 15.8 nM
47 | CC(C)N1[C@H](C(=O)NCc2ccc(Cl)cc2Cl)CCS1(=O)=O | 50.1 nM
48 | CC1CC(=O)N(C)[C@@H]1C(=O)NCc1cccc(C(F)(F)F)c1Cl (stereo partly drawn) | 25.1 nM
49 | CCN1C(=O)[C@@H](Cc2ccccc2)C[C@H]1C(=O)NCc1ccc(F)cc1Cl | 126 nM
50 | CN1[C@H](C(=O)NCc2cccc(C(F)(F)F)c2Cl)CCS1(=O)=O | 15.8 nM
51 | CN1[C@H](C(=O)NCc2ccc(F)c(F)c2Cl)CCS1(=O)=O | 79.4 nM
52 | CCN1C(=O)[C@H](Cc2ccccc2)C[C@H]1C(=O)NCc1cccc(C(F)(F)F)c1Cl | 31.6 nM
53 | CCN1[C@H](C(=O)NCc2ccc(F)c(F)c2Cl)CCS1(=O)=O | 79.4 nM
54 | CCN1[C@H](C(=O)NCc2cccc(C(F)(F)F)c2Cl)CCS1(=O)=O | 10 nM
55 | CN1C(=O)CC[C@H]1C(=O)NCc1cccc(C(F)(F)F)c1C#N | 6.31 nM
56 | Cn1nccc1CC(=O)NCc1cccc(C(F)(F)F)c1Cl | 25.1 nM
57 | CCN1C(=O)C(C)(C)C[C@H]1C(=O)NCc1cccc(C(F)(F)F)c1Cl | 5.01 nM
58 | CCN1C(=O)C(C)(C)C[C@H]1C(=O)NCc1ccc(F)c(F)c1Cl | 39.8 nM
59 | CN1C(=O)N(Cc2ccccn2)CC1C(=O)NCc1ccc(F)c(F)c1Cl (stereo not drawn) | 79.4 nM
60 | O=C1C(=O)N(c2ccccc2)CCN1Cc1ccc(F)cc1Cl | 398 nM
61 | Cc1ccccc1N1CCN(Cc2ccc(Cl)cc2Cl)C(=O)C1=O | 10 nM
62 | O=C(c1ccc(F)cc1Cl)N1CCN(c2cccc3ccccc23)C(=O)C1 | 100 nM
63 | O=C1C(=O)N(c2ccccc2F)CCN1Cc1ccc(F)cc1Cl | 126 nM

Row | Compound | IC50
64 | Cc1cccc(N2CCN(Cc3ccc(F)cc3Cl)C(=O)C2=O)c1C | 5.01 nM
65 | COc1ccccc1N1CCN(Cc2ccc(F)cc2Cl)C(=O)C1=O | 50.1 nM
66 | Cc1cccc(N2CCN(Cc3ccc(F)cc3Cl)C(=O)C2=O)c1 | 158 nM
67 | COc1cccc(N2CCN(Cc3ccc(F)cc3Cl)C(=O)C2=O)c1 | 158 nM
68 | O=C1C(=O)N(c2ccccc2Cl)CCN1Cc1ccc(F)cc1Cl | 20 nM
69 | Cc1ccccc1N1CCN(Cc2ccc(F)cc2Cl)C(=O)C1=O | 50.1 nM
70 | Cc1ccccc1N1CCN(Cc2ccccc2Cl)C(=O)C1=O | 126 nM
71 | Cc1ccccc1N1CCN(Cc2ccccc2F)C(=O)C1=O | 1000 nM
72 | Cc1ccccc1N1CCN(Cc2ccc(F)c(F)c2F)C(=O)C1=O | 251 nM
73 | Cn1nccc1CC(=O)NCc1ccc(F)cc1Cl | 251 nM
74 | Cn1nccc1CC(=O)NCc1ccc(F)c(F)c1Cl | 158 nM
75 | Cn1nccc1CC(=O)NCc1ccc(Cl)cc1Cl | 126 nM
76 | Cn1ncc(Cl)c1CC(=O)NCc1ccc(F)c(F)c1Cl | 31.6 nM
77 | Cn1ncc(Cl)c1CC(=O)NCc1ccc(Cl)cc1Cl | 12.6 nM
78 | Cc1ccccc1N1CCN(Cc2cccc(Cl)c2Cl)C(=O)C1=O | 25.1 nM
79 | Cn1ncc(F)c1CC(=O)NCc1ccc(F)cc1Cl | 126 nM
80 | Cn1ncc(F)c1CC(=O)NCc1ccc(F)c(F)c1Cl | 100 nM
81 | Cn1ncc(F)c1CC(=O)NCc1ccc(Cl)cc1Cl | 50.1 nM
82 | Cc1ccccc1N1CCN(Cc2ccc(F)cc2C(F)(F)F)C(=O)C1=O | 126 nM
83 | Cc1ccccc1N1CCN(Cc2cccc(C(F)(F)F)c2Cl)C(=O)C1=O | 39.8 nM
